# Experimental data published in patent publication US20260225997A1, “IONIZABLE AMINE LIPIDS” (Intellia Therapeutics, Inc., priority 2018, published 2026).
# Columns and labels:
# [1] = pKa measurement of unformulated amine lipid (fluorescence, method of Jayaraman et al.); format: physicochemical; settings: 100 μM in 0.1 M phosphate buffer pH 4.5-9.0
# Description: The pKa of each amine lipid was determined according to the method in Jayaraman, et al. (Angewandte Chemie, 2012) with the following adaptations. […] Lipid was diluted to 100 μM in 0.1 M phosphate buffer (Boston Bioproducts) where the pH ranged from 4.5-9.0. Fluorescence intensity was measured using excitation and emission wavelengths of 321 nm and 448 nm.
# [2] = LNP average particle size and polydispersity by dynamic light scattering (Malvern Zetasizer); format: physicochemical
# Summary of the method: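 LNPs diluted in PBS to a count rate of about 200–400 kcps and measured by dynamic light scattering. Size given as intensity-weighted Z-average diameter, with number-average diameter and polydispersity index also reported.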
# TTR = TTR editing in mouse liver by NGS after i.v. LNP delivery of Cas9 mRNA and sgRNA; format: in vivo; settings: for TTR Editing (%) / % Editing (TTR, liver) / Editing % / Editing Mean % Indel: CD-1 female mice; for % Editing (TTR, liver): Example 55: 0.1 mpk i.v.; for Editing %: Example 56: 0.1 mpk i.v., G282
# Summary of the method: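 Cas9 mRNA and chemically modified sgRNA were co-formulated in LNPs made of an ionizable amine lipid, DSPC, cholesterol and PEG-2k-DMG at a 6.0 N:P ratio. CD-1 female mice aged 6-10 weeks received tail-vein injections of 0.2 mL. Liver genomic DNA was then amplified around the target site and sequenced on an Illumina MiSeq, with editing calculated as indel-containing reads over total reads.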
# [3] = Table 3, Example 52: LNP, Cas9 mRNA + sgRNA (G650) 1:1 w/w, N:P 6.0
# [4] = Table 5, Example 53: LNP with gRNA G282 (TTR)
# [5] = Table 5, Example 53: LNP with gRNA G650 (B2M)
# [6] = Table 8, Example 54: LNP, G650 (B2M) 1:1
# [7] = Table 10, Example 55: LNP, G282 1:1
# [8] = Table 12, Example 56: LNP, G282
# [9] = Table 14, Example 58: LNP, G282 1:1
# [10] = Table 16, Example 59: LNP, G282 1:1
# [11] = Table 18, Example 60: LNP, G502 1:2
# [12] = Table 20, Example 61: LNP, G282 1:1
# [13] = Table 22, Example 62: LNP, G282 1:2
# [14] = Table 24, Example 63: LNP, G282 1:1
# [15] = Table 26, Example 64: LNP, G282 1:1
# [16] = Example 53: 0.1 mpk i.v., 6 days post-dose, G282 1:1
# [17] = Example 53: 0.3 mpk i.v., 6 days post-dose, G282 1:1
# [18] = Example 59: 0.1 mpk i.v., 7 days post-dose, G282 1:1
# [19] = Example 60: 0.1 mpk i.v., 6 days post-dose, G502 1:2
# [20] = Example 61: 0.1 mpk i.v., 7 days post-dose, G282 1:1
# [21] = Example 62: 0.03 mpk i.v., 7 days post-dose, G282 1:2
# [22] = Example 62: 0.1 mpk i.v., 7 days post-dose, G282 1:2
# [23] = Example 63: 0.03 mpk i.v., 7 days post-dose, G282 1:1
# [24] = Example 63: 0.1 mpk i.v., 7 days post-dose, G282 1:1
# [25] = Example 58: 0.1 mpk i.v., 6 days post-dose, G282 1:1
compound,measurement,setting,value
"CCCCC/C=C\C/C=C\CCCCCCCC(=O)OCC(COC(=O)CCC(OCCCCCCCC)OCCCCCCCC)COC(=O)OCCCN(CC)CC (stereo not shown) [Compound 19, 3-((4,4-bis(octyloxy)butanoyl)oxy)-2-(((((3-(diethylamino)propoxy))-carbonyl)oxy)methyl)propyl (9Z,12Z)-octadeca-9,12-dienoate, reference compound]",pKa,[1],6.4
same,Num Ave Size (nm),[2]; [3],64.97 nm
same,PDI,[2]; [3],0.056
same,Z-Ave Size (nm),[2]; [3],82.71 nm
same,Num Ave Size (nm),[2]; [4],62.86 nm
same,PDI,[2]; [4],0.015
same,Z-Ave Size (nm),[2]; [4],79.83 nm
same,Num Ave Size (nm),[2]; [5],64.97 nm
same,PDI,[2]; [5],0.056
same,Z-Ave Size (nm),[2]; [5],82.71 nm
same,Num Ave Size (nm),[2]; [6],64.97 nm
same,PDI,[2]; [6],0.056
same,Z-Ave Size (nm),[2]; [6],82.71 nm
same,Num Ave Size (nm),[2]; [7],64.95 nm
same,PDI,[2]; [7],0.025
same,Z-Ave Size (nm),[2]; [7],81.76 nm
same,Num Ave Size (nm),[2]; [8],63.19 nm
same,PDI,[2]; [8],0.047
same,Z-Ave Size (nm),[2]; [8],79.18 nm
same,Num Ave Size (nm),[2]; [9],71.1 nm
same,PDI,[2]; [9],0.007
same,Z-Ave Size (nm),[2]; [9],84.99 nm
same,Num Ave Size (nm),[2]; [10],71.49 nm
same,PDI,[2]; [10],0.02
same,Z-Ave Size (nm),[2]; [10],86.84 nm
same,Num Ave Size (nm),[2]; [11],73.15 nm
same,PDI,[2]; [11],0.033
same,Z-Ave Size (nm),[2]; [11],88.6 nm
same,Num Ave Size (nm),[2]; [12],71.49 nm
same,PDI,[2]; [12],0.02
same,Z-Ave Size (nm),[2]; [12],86.84 nm
same,Num Ave Size (nm),[2]; [13],73.15 nm
same,PDI,[2]; [13],0.033
same,Z-Ave Size (nm),[2]; [13],88.6 nm
same,Num Ave Size (nm),[2]; [14],66 nm
same,PDI,[2]; [14],0.03
same,Z-Ave Size (nm),[2]; [14],82 nm
same,Num Ave Size (nm),[2]; [15],65 nm
same,PDI,[2]; [15],0.03
same,Z-Ave Size (nm),[2]; [15],83 nm
same,TTR Editing (%),TTR; [16],13.8%
same,TTR Editing (%),TTR; [17],45.9%
same,"% Editing (TTR, liver)","TTR; 7 days post-dose, G282 1:1",29%
same,Editing %,TTR; 7 days post-dose,15%
same,Editing Mean % Indel,TTR; [18],29.3%
same,Editing Mean % Indel,TTR; [19],41.4%
same,Editing Mean % Indel,TTR; [20],35.9%
same,Editing Mean % Indel,TTR; [21],7.0%
same,Editing Mean % Indel,TTR; [22],27.1%
same,Editing Mean % Indel,TTR; [23],30.18%
same,Editing Mean % Indel,TTR; [24],56.02%
same,Editing Mean % Indel,"TTR; Example 64: Dose 0.03 mpk (table) i.v., 7 days post-dose, G282 1:1",5.2%
"CCCCCCCCCOC(=O)CCCCCCCN(CCO)CCCCCCCC(=O)OC(CCCCCCCC)CCCCCCCC [Compound 18, heptadecan-9-yl 8-((2-hydroxyethyl)(8-(nonyloxy)-8-oxooctyl)amino)octanoate, reference compound]",pKa,[1],6.6
same,Num Ave Size (nm),[2]; [8],69.77 nm
same,PDI,[2]; [8],0.112
same,Z-Ave Size (nm),[2]; [8],106.6 nm
same,Num Ave Size (nm),[2]; [10],53.06 nm
same,PDI,[2]; [10],0.093
same,Z-Ave Size (nm),[2]; [10],75.79 nm
same,Num Ave Size (nm),[2]; [12],52.25 nm
same,PDI,[2]; [12],0.083
same,Z-Ave Size (nm),[2]; [12],74.67 nm
same,Editing %,TTR; 7 days post-dose,33%
same,Editing Mean % Indel,TTR; [18],41.6%
same,Editing Mean % Indel,TTR; [20],26.8%
"CCCCCCCCOC(CCCCCCCN(CCO)CCCCCCCC(=O)OC(CC)CCCCCC)OCCCCCCCC (stereo not shown) [Compound 28, nonan-3-yl 8-((8,8-bis(octyloxy)octyl)(2-hydroxyethyl)amino)octanoate]",pKa,[1],6.41
same,Num Ave Size (nm),[2]; [14],42 nm
same,PDI,[2]; [14],0.30
same,Z-Ave Size (nm),[2]; [14],78 nm
same,Editing Mean % Indel,TTR; [23],20.74%
same,Editing Mean % Indel,TTR; [24],42.36%
"CCCCCCCCOC(CCCCCCCN(CCO)CCCCCCCC(=O)OC(CC)CCCCCCCC)OCCCCCCCC (stereo not shown) [Compound 17, undecan-3-yl 8-((8,8-bis(octyloxy)octyl)(2-hydroxyethyl)amino)octanoate]",pKa,[1],6.21
same,Num Ave Size (nm),[2]; [9],54.25 nm
same,PDI,[2]; [9],0.056
same,Z-Ave Size (nm),[2]; [9],68.72 nm
same,Num Ave Size (nm),[2]; [13],44.93 nm
same,PDI,[2]; [13],0.072
same,Z-Ave Size (nm),[2]; [13],62.89 nm
same,Editing Mean % Indel,TTR; [25],40.8%
same,Editing Mean % Indel,TTR; [21],4.0%
same,Editing Mean % Indel,TTR; [22],45.9%
"CCCCCCCCCOC(=O)CCCCCCCN(CCO)CCCCCCCC(OCCCCCCCC)OCCCCCCCC [Compound 1, nonyl 8-((8,8-bis(octyloxy)octyl)(2-hydroxyethyl)amino octanoate]",pKa,[1],6.3
same,Num Ave Size (nm),[2]; [3],57.04 nm
same,PDI,[2]; [3],0.105
same,Z-Ave Size (nm),[2]; [3],79.49 nm
same,Num Ave Size (nm),[2]; [4],61.19 nm
same,PDI,[2]; [4],0.008
same,Z-Ave Size (nm),[2]; [4],75.77 nm
same,Num Ave Size (nm),[2]; [5],65.11 nm
same,PDI,[2]; [5],0.028
same,Z-Ave Size (nm),[2]; [5],80.96 nm
same,Num Ave Size (nm),[2]; [7],55.38 nm
same,PDI,[2]; [7],0.05
same,Z-Ave Size (nm),[2]; [7],69.94 nm
same,Num Ave Size (nm),[2]; [9],55.38 nm
same,PDI,[2]; [9],0.05
same,Z-Ave Size (nm),[2]; [9],69.94 nm
same,Num Ave Size (nm),[2]; [10],57.78 nm
same,PDI,[2]; [10],0.04
same,Z-Ave Size (nm),[2]; [10],72.21 nm
same,Num Ave Size (nm),[2]; [11],58.01 nm
same,PDI,[2]; [11],0.037
same,Z-Ave Size (nm),[2]; [11],74.5 nm
same,Num Ave Size (nm),[2]; [13],58.01 nm
same,PDI,[2]; [13],0.037
same,Z-Ave Size (nm),[2]; [13],74.5 nm
same,Num Ave Size (nm),[2]; [14],52 nm
same,PDI,[2]; [14],0.06
same,Z-Ave Size (nm),[2]; [14],70 nm
same,TTR Editing (%),TTR; [16],55.4%
same,TTR Editing (%),TTR; [17],59.3%
same,TTR editing in the liver compared with Compound 19 formulations,TTR; Example 53 text: 0.1 and 0.3 mpk,higher TTR editing in the liver than Compound 19 formulations at each dose
same,editing of TTR,TTR; Example 53 text: both the 0.1 mpk and 0.3 mpk doses,55-60%
same,"% Editing (TTR, liver)","TTR; 7 days post-dose, G282 1:1",43%
same,Editing Mean % Indel,TTR; [25],29.5%
same,Editing Mean % Indel,TTR; [18],41.6%
same,Editing Mean % Indel,TTR; [19],46.3%
same,Editing Mean % Indel,TTR; [21],8.9%
same,Editing Mean % Indel,TTR; [22],34.2%
same,Editing Mean % Indel,TTR; [23],10.86%
same,Editing Mean % Indel,TTR; [24],41.10%
